# US8906825B2, “Herbicidal compositions comprising 4-amino-3-chloro-5-fluoro-6-(4-chloro-2-fluoro-3-methoxyphenyl) pyridine-2-carboxylic acid or a derivative thereof and triazolopyrimidine sulfonamides” (Dow AgroSciences LLC, priority 2012, dated 2014)
# Assays:
# Type in all cases: in vivo
# [1] = system: FIMMI (Fimbristylis miliacea (L.) Vahl, globe fringerush); experiment: In-water applied herbicidal mixtures, transplanted paddy rice, greenhouse (Example II); settings: Compound A Benzyl Ester 8 gae/ha
# [2] = system: ECHCG (Echinochloa crusgalli (L.) Beauv., barnyardgrass); experiment: as above
# [3] = system: BRAPP (Brachiaria platyphylla (Griseb.) Nash, broadleaf signalgrass); experiment: Postemergence field trials in direct-seeded rice, United States (Example IV); settings: foliar
# Protocol: Multiple post-emergence field trials were conducted under field conditions in Tolima, Colombia; Thessaloniki, Greece; Ottobiano and Copiano, Italy; Greenville, Miss. and Eagle Lake, Tex., USA; and water-injected treatments were tested at Ryugasaki, Japan. Trial sites were located in commercially grown fields of direct-seeded rice (Oryza sativa) using standard herbicide small plot research methodology, except in Japan where transplanted rice was utilized for the field trial. Post-emergence trial plot size varied from 2 to 3 meter (m)×5 to 8 m (width×length) with 4 replicates per treatment. Water-injected trial plot size was 2×2 m with 3 replicates per treatment. The rice crop was grown using normal cultural practices for fertilization, seeding, watering, flooding and maintenance to ensure good growth of the crop and the weeds.
# All treatments in the post-emergence field trials were applied using a backpack compressed air/gas sprayer with flat fan nozzles (80° or 110°) calibrated to apply 187 to 300 L/ha spray volume at approximately 200-400 kPa nozzle pressure. In Japan, treatments were water-injected applied where the specified amount of commercial product was mixed in 100 mls of water per replicate and applied directly into 3 cm deep water containing the crop and weeds. Treatments consisted of the benzyl ester of 4-amino-3-chloro-5-fluoro-6-(4-chloro-2-fluoro-3-methoxy-phenyl)pyridine-2-carboxylic acid (Compound A), formulated as an SC (suspension concentrate), and various herbicidal components alone and in combination.
# Commercially available products of penoxsulam (Viper 20OD® (Europe), Grasp 240SC® (USA), and Wideattack 37.5SC® (Japan)) were mixed in water at appropriate formulated product rates to achieve the desired rates based on a unit area of application (hectare) to achieve the desired rates as shown. Treatments were rated at 15 to 56 days after application (DAA) as compared to the untreated control plants. Visual weed control was scored on a scale of 0 to 100 percent where 0 corresponds to no injury and 100 corresponds to complete kill.
# All treatment results, both for the single product and mixtures, are an average of 3 to 4 replicates. The trial sites had naturally occurring populations of weeds. The weed spectrum included, but was not limited to, broadleaf signalgrass (Brachiaria platyphylla (Griseb.) Nash or Urochloa platyphylla (Nash) R.D. Webster, BRAPP), smallflower umbrellaplant (Cyperus difformis L., CYPDI), yellow nutsedge (Cyperus esculentus L., CYPES), multiple Echinochloa species in the same field (ECHSS) in Italy (mixed ECHSS biotypes), Amazon sprangletop (Leptochloa panicoides (J. Presl) A.S. Hitchc., LEFPA), and Japanese bulrush (Schoenoplectus juncoides (Roxb.) Palla, SCPJU).
Structure (SMILES),Visual Weed Control (%) - 21 DAA FIMMI Obs [1],Visual Weed Control (%) - 21 DAA ECHCG Obs ([2]; Compound A Benzyl Ester 4.38 gae/ha),Visual Weed Control (%) - 21 DAA ECHCG Obs ([2]; Compound A Benzyl Ester 8.75 gae/ha),Visual Weed Control (%) - 15-19 DAA BRAPP Obs ([3]; Compound A Benzyl Ester 32 gae/ha),Visual Weed Control (%) - 15-19 DAA BRAPP Obs ([3]; Penoxsulam 40 gai/ha)
"COc1c(Cl)ccc(-c2nc(C(=O)OCc3ccccc3)c(Cl)c(N)c2F)c1F [Compound A Benzyl Ester, benzyl ester of 4-amino-3-chloro-5-fluoro-6-(4-chloro-2-fluoro-3-methoxy-phenyl)pyridine-2-carboxylic acid]",30%,20%,85%,62%,
"COc1cnc(OC)n2nc(NS(=O)(=O)c3c(OCC(F)F)cccc3C(F)(F)F)nc12 [Penoxsulam, 2-(2,2-difluoroethoxy)-N-(5,8-dimethoxy[1,2,4]triazolo[1,5-c]pyrimidin-2-yl)-6-(trifluoromethyl)benzenesulfonamide, reference compound]",,,,,35%
